Measured values taken from patent US20110143948A1, “MOLECULAR SIGNATURES AND BIOMARKERS ASSOCIATED WITH MELANOMA AND METHODS OF USE THEREOF” (priority 2008, published 2011).

Test system: ncRNAs (SEQ ID NO 28-89)
Assay: ncRNA arrays of melanocytes, keratinocytes, normal skin, melanoma cell lines and patient samples
Parameters: species or system human
Settings: for ncRNA array expression, patient 2: melanoma patient 2 sample compared to normal skin; for ncRNA array expression, patient 3: melanoma patient 3 sample compared to normal skin; for ncRNA array expression, patient 4: melanoma patient 4 sample compared to normal skin; for ncRNA array expression, patient 5: melanoma patient 5 sample compared to normal skin; for ncRNA array expression, patient 6: melanoma patient 6 sample compared to normal skin; for ncRNA array expression, patient 7: melanoma patient 7 sample compared to normal skin; for ncRNA array expression, patient 8: melanoma patient 8 sample compared to normal skin; for ncRNA array expression, patient 9: melanoma patient 9 sample compared to normal skin; for ncRNA array expression, patient 10: melanoma patient 10 sample compared to normal skin; for ncRNA array expression, patient 19: melanoma patient 19 sample compared to normal skin; for ncRNA array expression, patient 20: melanoma patient 20 sample compared to normal skin; for ncRNA array expression, patient 21: melanoma patient 21 sample compared to normal skin; for ncRNA array expression, patient 22: melanoma patient 22 sample compared to normal skin; for ncRNA array expression, patient 23: melanoma patient 23 sample compared to normal skin; for ncRNA array expression, patient 24: melanoma patient 24 sample compared to normal skin; for ncRNA array expression, patient 25: melanoma patient 25 sample compared to normal skin; for ncRNA array expression, patient 26: melanoma patient 26 sample compared to normal skin; for ncRNA array expression, patient 27: melanoma patient 27 sample compared to normal skin; for ncRNA array expression, patient 28: melanoma patient 28 sample compared to normal skin; for ncRNA array expression, patient 29: melanoma patient 29 sample compared to normal skin; for ncRNA array expression, patient 30: melanoma patient 30 sample compared to normal skin
Procedure: An ncRNA array platform that contains over 10,000 putative (>200 nt) ncRNAs including most of the known ncRNAs in mouse and human was conducted to evaluate ncRNAs within melanoma. Lack of coding potential was estimated by an algorithm that scores various characteristics of protein-coding genes, including open reading frame length, synonymous/non-synonymous base substitution rates and similarity to known proteins. These arrays provide the first generation of tools designed to analyze the dynamic expression of a large subset of ncRNAs in human and mouse and to identify candidate genes for more detailed functional analysis. In addition to the ncRNA content, probes targeting mRNA content from RefSeq are also included, allowing discovery of coordinated expression with associated protein-coding genes. The result of these assays is a list of ncRNA genes (i.e. SEQ ID NO 28-89) and maps of their sequence boundaries. We have profiled total RNA isolated from melanocytes, keratinocytes, normal human skin, melanoma cell lines and melanoma patient samples to identify differentially expressed ncRNAs in cell lines and tissues. ncRNAs expression in all tested samples were compared to either melanocytes or normal skin. We have identified a group of ncRNAs that are specific for (a) melanocytes (b) Keratinocytes (c) Melanoma cell lines (d) Melanoma patients. […] Probe DNA sequences for this array include: AF086032 (SEQ ID NO 107) […] BC071821 (SEQ ID NO 108) […] C AK130193 (SEQ ID NO 109) […] AL109719 (SEQ ID NO 110) […] AF085888 (SEQ ID NO 111) […] T BC033879 (SEQ ID NO 112) […] AA AK024556 (SEQ ID NO 113) […] Probe nomenclature is standard genebank IDs given by NCBI and other organizations.
Keratinocytes specific signatures were subtracted and resultant ncRNAs were validated by qRT-PCR and Northern blots. Results point out the presence of a group of melanoma specific ncRNAs (i.e. SEQ ID NO 28-89).

Substance | ncRNA array expression, patient 2 | ncRNA array expression, patient 3 | ncRNA array expression, patient 4 | ncRNA array expression, patient 5 | ncRNA array expression, patient 6 | ncRNA array expression, patient 7 | ncRNA array expression, patient 8 | ncRNA array expression, patient 9 | ncRNA array expression, patient 10 | ncRNA array expression, patient 19 | ncRNA array expression, patient 20 | ncRNA array expression, patient 21 | ncRNA array expression, patient 22 | ncRNA array expression, patient 23 | ncRNA array expression, patient 24 | ncRNA array expression, patient 25 | ncRNA array expression, patient 26 | ncRNA array expression, patient 27 | ncRNA array expression, patient 28 | ncRNA array expression, patient 29 | also measured
SEQ ID NO 37 (ACGCACTGGGCGTTGAAGCAGTGCTTTCTGGATTAAATACGAAATACTGATGTCACAAGC; DNA, backbone and methylation of C not given here; listed as Homo sapiens) | 1.589 | 0.3993 | 0.7773 | 2.425 | −0.3494 | 1.933 | 1.302 | 2.619 | 3.899 | 4.51 | 0.9938 | 2.575 | 0.0988 | 1.771 | 4.312 | 3.471 | 2.31 | 0.5554 | 1.732 | 2.461 | ncRNA array expression, patient 30: −1.17
SEQ ID NO 38 (GTAAACAAGGTCTCACAAAAACAGCTGACCACACCATAAAATCACTGAGACCGAGCCTGC; listed as DNA, chemistry not given here; listed as Homo sapiens) | −1.1813 | −1.02 | −0.9275 | −1.288 | −1.615 | −1.64 | −1.244 | −1.183 | −0.784 | −0.7729 | −0.9285 | −1.068 | −0.7593 | −1.569 | −1.078 | −1.365 | −1.368 | −1.317 | −1.181 | −1.249 | ncRNA array expression, patient 30: 0.333
SEQ ID NO 39 (TGATCCTGTAAATCATGTTTTTGTTTATTCCCCAACACTAACCTCACTCCTTTACTATTC; listed as DNA, chemistry not given here; listed as Homo sapiens) | −1.04 | −0.7852 | −1.149 | −1.017 | −0.9404 | −1.086 | −0.9282 | −1.306 | −1.237 | −0.6006 | −1.263 | −1.232 | −0.301 | −0.164 | −1.204 | −1.66 | −1.776 | −1.287 | −1.448 | −1.374 | ncRNA array expression, patient 30: 0.02356
SEQ ID NO 40 (GTTAAAGACTAAATTAGTGATTTGGGAGATCAAGCCAATGGGCTTGTCTAAAACCTAGTC; listed as DNA, chemistry not given here; listed as Homo sapiens) | 1.341 | 1.98 | 2.261 | 0.52 | 1.498 | 0.4373 | 1.771 | 0.4625 | 0.3577 | 0.3342 | 0.9994 | 0.489 | 0.9011 | 1.125 | 0.452 | 2.17 | 2.021 | 1.467 | 1.364 | 1.245 | ncRNA array expression, patient 30: 0.7348
SEQ ID NO 41 (CTCGTAACACTGGGAAAACTGCATACAATATTTAGAAGGAACACTAATACAGCAGAATCT; listed as DNA, chemistry not given here; listed as Homo sapiens) | −2.529 | −2.702 | −2.655 | −2.566 | −2.676 | −2.596 | −2.699 | −2.456 | −2.262 | −0.5732 | −2.545 | −2.574 | −2.212 | −1.1449 | −2.6637 | −2.4383 | −2.458 | −2.204 | −2.5405 | −2.614 | ncRNA array expression, patient 30: 0.7101
SEQ ID NO 42 (TAGACATAGGTTAGAGGGGGAACAGTGCTTAAAATTCCATGGAACTAAGATTTTTTTTAT; listed as DNA, chemistry not given here; listed as Homo sapiens) | −1.5031 | −1.941 | −1.837 | −1.916 | −1.445 | −1.996 | −2.073 | −1.562 | −0.8067 | −2.231 | −1.775 | −1.59 | −1.26 | −0.1085 | −1.66 | −1.5976 | −1.684 | −1.038 | −1.339 | −0.5812 | ncRNA array expression, patient 30: 1.333
SEQ ID NO 43 (CTTAATCCACATTTGTTTTGAATTTTTCTGATTCCTATAGTACCATACTCTGATGCCTAT; listed as DNA, chemistry not given here; listed as Homo sapiens) | −1.3 | −1.272 | −1.462 | −1.269 | −1.488 | −1.541 | −1.511 | −1.226 | −1.371 | −1.531 | −1.239 | −1.321 | −1.451 | −1.442 | −1.2517 | −1.544 | −1.396 | −1.339 | −1.387 | −1.366 | ncRNA array expression, patient 30: −0.1449
